{
  "source": "patent US10487054B2",
  "about": "“Therapeutic compounds” (REGENTS OF THE UNIVERSITY OF MINNESOTA, priority 2017, dated 2019)",
  "system": "SKH-1 hairless mice",
  "test": "SUV-induced mouse skin tumorigenesis, late-stage prevention model",
  "assay_type": "in vivo",
  "experimental": "Tumor volume was calculated according to the following formula: tumor volume (mm^3)=length×width×height×0.52. […] For 5B and 5C, data are represented as mean values±S.D. and differences were determined by one-way ANOVA. The asterisk (*) indicates a significant decrease compared to the group exposed to SUV only or the group treated with vehicle followed by SUV (***, p<0.001). […] Dorsal trunk skin samples were harvested and stained with H&E (left panels) or with an antibody to detect PCNA (right panels). […] Expression of PCNA was quantified using Image-Pro Plus software and stained cells were counted from 5 separate areas on each slide (lower panel). An average of 3 samples was calculated per group. Data are expressed as mean percent of control±S.D. and the asterisks indicate a significant difference in PCNA expression (***, p<0.001). […] The expression levels of phosphorylated and total proteins were analyzed by Western blot.\nMice were weighed once a week until week 28. […] SKH-1 hairless mice were treated as described in Materials and Methods. The mice in the control groups (n=9) received no vehicle/no SUV (n=3), vehicle/no SUV (n=3), or 1 mg compound 1/no SUV (n=3), respectively. The mice in the rest of the groups received SUV irradiation for 15 weeks 3 times a week. The mice in the vehicle/SUV-treated group (n=12) were treated with oil-in-water emulsion cream 3 times a week until the end of the experiment (28 weeks). The mice in the 0.1 mg/SUV or 1 mg/SUV groups (n=12 each) received treatment with compound 1 (0.1 or 1 mg, respectively) 3 times a week until the end of the experiment (28 weeks). The respective doses of oil-in-water emulsion cream or compound 1 were applied topically to the dorsal area. Tumor incidence and multiplicity were recorded weekly until the end of the experiment at week 28.\nFemale SKH-1 hairless mice were purchased from Charles River and were acclimated for 2 weeks before the study and had free access to food and water. All animals were maintained according to the guidelines approved by the University of Minnesota Institutional Animal Care and Use Committee (IACUC). The animals were housed in climate-controlled quarters with a 12-h light/dark cycle. The skin carcinogenesis experiments were conducted using 6-8 wk old mice with a mean body weight of 25 g. Skin carcinogenesis was induced by a solar simulated ultraviolet irradiation system. The SUV irradiation source (Q-Lab Corporation, Westlake, Ohio) emitted at wavelengths of 295 to 365 nm and the peak emission was 340 nm.\nFor the late-stage prevention model, the control and experimental groups were identical to those for the early prevention model. However, the experimental groups of mice were exposed to SUV irradiation 3 times a week for 15 weeks without application of vehicle or compound 1 in vehicle. At the end of 15 weeks, SUV exposure was stopped and application of vehicle with or without compound 1 was begun and continued for 13 weeks until week 28 at which time the study was discontinued and mice euthanized and tissues harvested.\nAt week 1, mice were irradiated with SUV at a dose of 36 kJ/m^2 UVA and 1.8 kJ/m^2 UVB. At week 6, the dose of SUV reached 60 kJ/m^2 UVA and 2.9 kJ/m^2 UVB and this dose was maintained from week 6 to week 15. The respective doses of vehicle or compound 1 were applied topically to the dorsal area. Mice were weighed and tumors were measured once a week until week 28 or when tumor load reached 1 cm^3 total volume. At that time mice were euthanized and one-half of each sample was immediately fixed in 10% formalin and processed for hematoxylin and eosin (H&E) staining and immunohistochemistry. The other one-half of the sample was frozen and used for Western blot analysis.\nSkin tissues were embedded in paraffin and subjected to immunohistochemistry. Tissues were de-paraffinized and hydrated and then permeabilized with 0.5% Triton X-100/1×PBS for 10 min. […]",
  "key": {"[1]": {"settings": "late-stage model, topical 0.1 or 1 mg, vs vehicle-treated group, 28 weeks"}},
  "data": [
    {"smiles": "O=C1Nc2ccc(C34CC5CC(CC(C5)C3)C4)cc2C1=NO", "note": "[compound 1, 5-(adamantan-1-yl)-3-(hydroxyimino)indolin-2-one]", "values": [
      {"measurement": "epidermal thickness", "setting": "late-stage model, H&E", "value": "dramatically decreased"},
      {"measurement": "formation of SCCs", "setting": "late-stage model, H&E", "value": "inhibited"},
      {"measurement": "SUV-induced phosphorylation of ERK1/2, p38, and JNKs in mouse skin", "setting": "late-stage model, Western blot", "value": "dramatically suppressed"},
      {"measurement": "expression of PCNA", "setting": "late-stage model, immunohistochemistry of skin", "value": "decreased"},
      {"measurement": "tumor multiplicity", "setting": "[1]", "value": "significantly reduced"},
      {"measurement": "tumor volume", "setting": "[1]", "value": "significantly reduced"},
      {"measurement": "malignancy rate", "setting": "late-stage model, vs vehicle-treated mice", "value": "significantly decreased"},
      {"measurement": "SUV-induced tumor incidence", "setting": "late-stage prevention group", "value": "substantial suppression"},
      {"measurement": "body weight", "setting": "topical application on dorsal skin, late-stage model, to week 28", "value": "no effect on body weight"}
    ]}
  ]
}
